Results reported in patent US12503438B2, “Compounds for the treatment of kinase-dependent disorders” (Exelixis, Inc., priority 2019, dated 2025).
Each block holds one compound with its values, some of them ahead of it.

Biological target: KDR (Homo sapiens, UniProt P35968)
Assay: KDR autophosphorylation ELISA in HUVEC cells
Format: cell-based
Parameters: endogenous in cells; host or cells: HUVEC (Lonza #C2519A)
Details: cellular activity, VEGF165-stimulated, phospho-KDR ELISA
Description: Human umbilical vein endothelial cells or HUVEC (Lonza #C2519A) were seeded at 2×10^4 cells/well onto 96-well plates (Corning #3904), in EGM-2 growth medium (Lonza #CC-3162) containing 1% Penicillin Streptomycin (Thermo Fisher #15140-122). HUVEC cells were incubated at 37° C., 5% CO2 for 24 h and then starved for 24 h in serum-free EBM-2 basal medium (Lonza #CC-3156) containing 1% Penicillin Streptomycin. Test compounds were serially diluted to produce an 8-point dose curve in fresh serum-free medium to a final concentration of 0.3% DMSO (vehicle) and added to the cells and incubated for 1 h. Cells were then stimulated with 100 ng/mL recombinant human VEGF165 (R&D Systems #293-VE-500) for 5 min, washed with cold PBS, and immediately lysed with 130 μL of cold 1× lysis buffer [20 mM Tris, 137 mM sodium chloride, 2 mM EDTA, 10% glycerol, 1% NP-40 alternative, 1 mM activated sodium orthovanadate, 1 mM PefaBloc SC (Sigma-Aldrich #11429868001), protease/phosphatase inhibitor tablet (Thermo Fisher #A32959)]. Lysates were collected and 100 μL/well added into the human phospho-KDR DuoSet IC ELISA (R&D Systems #DYC1766-2). Assay was performed according to manufacturer's instructions and sample phospho-KDR concentrations were extrapolated using human phospho-KDR control (R&D Systems #841421) as a standard. Positive control wells (100% activity) contained VEGF165-stimulated, DMSO-treated cell lysates. Negative control wells (0% activity) contained non-stimulated cell lysates. IC50 values were calculated by nonlinear regression analysis using a 4-parameter logistic curve fit in ActivityBase XE (IDBS).

Sequence of KDR (P35968 20-1356): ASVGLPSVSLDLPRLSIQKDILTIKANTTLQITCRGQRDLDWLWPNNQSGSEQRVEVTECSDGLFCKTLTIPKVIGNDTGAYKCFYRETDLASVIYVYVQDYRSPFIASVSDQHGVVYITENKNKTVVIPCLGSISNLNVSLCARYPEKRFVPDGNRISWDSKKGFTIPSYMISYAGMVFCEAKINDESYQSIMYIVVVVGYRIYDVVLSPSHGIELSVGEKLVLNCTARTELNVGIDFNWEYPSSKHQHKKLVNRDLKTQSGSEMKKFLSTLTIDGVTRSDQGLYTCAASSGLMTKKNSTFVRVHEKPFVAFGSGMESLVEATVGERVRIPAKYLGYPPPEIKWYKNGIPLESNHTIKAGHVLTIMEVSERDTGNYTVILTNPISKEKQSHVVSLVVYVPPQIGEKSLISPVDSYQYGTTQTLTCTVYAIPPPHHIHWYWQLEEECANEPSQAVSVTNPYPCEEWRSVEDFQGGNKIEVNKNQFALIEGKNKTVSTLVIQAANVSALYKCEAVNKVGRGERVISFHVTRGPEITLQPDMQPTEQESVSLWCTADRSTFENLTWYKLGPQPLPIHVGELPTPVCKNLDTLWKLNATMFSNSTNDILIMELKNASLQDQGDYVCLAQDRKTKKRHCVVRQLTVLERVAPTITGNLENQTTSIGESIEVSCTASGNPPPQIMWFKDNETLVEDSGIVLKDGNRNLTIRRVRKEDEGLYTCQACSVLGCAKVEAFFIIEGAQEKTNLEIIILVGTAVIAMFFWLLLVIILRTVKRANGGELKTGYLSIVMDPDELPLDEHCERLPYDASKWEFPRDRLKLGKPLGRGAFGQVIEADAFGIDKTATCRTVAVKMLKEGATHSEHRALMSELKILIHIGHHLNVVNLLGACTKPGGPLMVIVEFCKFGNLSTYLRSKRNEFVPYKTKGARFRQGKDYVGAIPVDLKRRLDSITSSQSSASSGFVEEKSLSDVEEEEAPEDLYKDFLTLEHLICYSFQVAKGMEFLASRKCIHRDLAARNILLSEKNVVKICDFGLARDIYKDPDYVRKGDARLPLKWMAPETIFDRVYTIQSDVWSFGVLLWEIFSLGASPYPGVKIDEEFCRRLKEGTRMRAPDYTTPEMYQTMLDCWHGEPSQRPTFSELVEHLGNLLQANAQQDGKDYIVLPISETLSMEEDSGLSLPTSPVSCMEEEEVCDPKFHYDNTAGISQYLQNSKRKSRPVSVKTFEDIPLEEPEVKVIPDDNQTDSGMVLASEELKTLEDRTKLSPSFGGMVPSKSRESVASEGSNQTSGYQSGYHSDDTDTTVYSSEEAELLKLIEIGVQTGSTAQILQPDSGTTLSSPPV

Structure (SMILES): COc1cc(-c2ccc3c(Oc4ccc(NC(=O)C5(C(=O)Nc6ccc(F)cc6)CC5)cc4)ccnc3c2)ccn1 [Compound 31, 1-N′-(4-Fluorophenyl)-1-N-[4-[7-(2-methoxypyridin-4-yl)quinolin-4-yl]oxyphenyl]cyclopropane-1,1-dicarboxamide]
- IC50: 10 to 100 nM

Structure (SMILES): O=C(Nc1ccc(F)cc1)C1(C(=O)Nc2ccc(Oc3ccnc4cc(-c5cnn(C(F)F)c5)ccc34)c(F)c2)CC1 [Compound 123, 1-N′-[4-[7-[1-(Difluoromethyl)pyrazol-4-yl]quinolin-4-yl]oxy-3-fluorophenyl]-1-N-(4-fluorophenyl)cyclopropane-1,1-dicarboxamide]
- IC50: ≤ 10 nM

Structure (SMILES): O=C(Nc1ccc(F)cc1)C1(C(=O)Nc2cc(F)c(Oc3ccnc4cc(-c5cccnc5)ccc34)cc2F)CC1 [Compound 115, 1-N′-[2,5-Difluoro-4-(7-pyridin-3-ylquinolin-4-yl)oxyphenyl]-1-N-(4-fluorophenyl)cyclopropane-1,1-dicarboxamide]
- IC50: ≤ 10 nM

Structure (SMILES): CC(C)n1cc(-c2ccc3c(Oc4ccc(NC(=O)C5(C(=O)Nc6ccc(F)cc6)CC5)cc4)ccnc3c2)cn1 [Compound 21, 1-N′-(4-Fluorophenyl)-1-N-[4-[7-(1-propan-2-ylpyrazol-4-yl)quinolin-4-yl]oxyphenyl]cyclopropane-1,1-dicarboxamide]
- IC50: ≤ 10 nM

Structure (SMILES): O=C(Nc1ccc(F)cc1)C1(C(=O)Nc2ccc(Oc3ccnc4cc(-c5cncc(F)c5)ccc34)cc2)CC1 [Compound 45, 1-N′-(4-Fluorophenyl)-1-N-[4-[7-(5-fluoropyridin-3-yl)quinolin-4-yl]oxyphenyl]cyclopropane-1,1-dicarboxamide]
- IC50: 100 to 300 nM

Structure (SMILES): Cc1cc2c(Oc3ccc(NC(=O)C4(C(=O)Nc5ccc(F)cc5)CC4)cc3F)ccnc2cc1-c1ncc[nH]1 [Compound 122, 1-N′-[3-Fluoro-4-[7-(1H-imidazol-2-yl)-6-methylquinolin-4-yl]oxyphenyl]-1-N-(4-fluorophenyl)cyclopropane-1,1-dicarboxamide]
- IC50: 10 to 100 nM

Structure (SMILES): CN1CCN(c2cc(-c3ccc4c(Oc5ccc(NC(=O)C6(C(=O)Nc7ccc(F)cc7)CC6)cc5)ccnc4c3)ccn2)CC1 [Compound 111, 1-N′-(4-Fluorophenyl)-1-N-[4-[7-[2-(4-methylpiperazin-1-yl)pyridin-4-yl]quinolin-4-yl]oxyphenyl]cyclopropane-1,1-dicarboxamide]
- IC50: 10 to 100 nM

Structure (SMILES): Cc1cc2c(Oc3cc(F)c(NC(=O)C4(C(=O)Nc5ccc(F)cc5)CC4)cc3F)ccnc2cc1-c1ncc[nH]1 [Compound 121, 1-N′-[2,5-Difluoro-4-[7-(1H-imidazol-2-yl)-6-methylquinolin-4-yl]oxyphenyl]-1-N-(4-fluorophenyl)cyclopropane-1,1-dicarboxamide]
- IC50: 10 to 100 nM

Structure (SMILES): N#Cc1ccc(-c2ccc3c(Oc4ccc(NC(=O)C5(C(=O)Nc6ccc(F)cc6)CC5)cc4)ccnc3c2)cn1 [Compound 42, 1-N-[4-[7-(6-Cyanopyridin-3-yl)quinolin-4-yl]oxyphenyl]-1-N′-(4-fluorophenyl)cyclopropane-1,1-dicarboxamide]
- IC50: 10 to 100 nM

Structure (SMILES): Cc1cc(-c2ccc3c(Oc4ccc(NC(=O)C5(C(=O)Nc6ccc(F)cc6)CC5)cc4)ccnc3c2)ccn1 [Compound 30, 1-N′-(4-Fluorophenyl)-1-N-[4-[7-(2-methylpyridin-4-yl)quinolin-4-yl]oxyphenyl]cyclopropane-1,1-dicarboxamide]
- IC50: 10 to 100 nM

Structure (SMILES): Cc1cc2c(Oc3cc(Cl)c(NC(=O)C4(C(=O)Nc5ccc(F)cc5)CC4)cc3F)ccnc2cc1-c1cnn(C)c1 [Compound 112, 1-N′-[2-Chloro-5-fluoro-4-[6-methyl-7-(1-methylpyrazol-4-yl)quinolin-4-yl]oxyphenyl]-1-N-(4-fluorophenyl)cyclopropane-1,1-dicarboxamide]
- IC50: > 300 nM

Structure (SMILES): O=C(Nc1ccc(F)cc1)C1(C(=O)Nc2ccc(Oc3ccnc4cc(-c5cncs5)ccc34)cc2)CC1 [Compound 116, 1-N′-(4-Fluorophenyl)-1-N-[4-[7-(1,3-thiazol-5-yl)quinolin-4-yl]oxyphenyl]cyclopropane-1,1-dicarboxamide]
- IC50: ≤ 10 nM

Structure (SMILES): N#Cc1cc(-c2ccc3c(Oc4ccc(NC(=O)C5(C(=O)Nc6ccc(F)cc6)CC5)cc4)ccnc3c2)ccn1 [Compound 34, 1-N-[4-[7-(2-Cyanopyridin-4-yl)quinolin-4-yl]oxyphenyl]-1-N′-(4-fluorophenyl)cyclopropane-1,1-dicarboxamide]
- IC50: 10 to 100 nM

Structure (SMILES): COc1cncc(-c2ccc3c(Oc4ccc(NC(=O)C5(C(=O)Nc6ccc(F)cc6)CC5)cc4)ccnc3c2)c1 [Compound 47, 1-N′-(4-Fluorophenyl)-1-N-[4-[7-(5-methoxypyridin-3-yl)quinolin-4-yl]oxyphenyl]cyclopropane-1,1-dicarboxamide]
- IC50: 100 to 300 nM

Structure (SMILES): Cn1cc(-c2ccc3c(Oc4ccc(NC(=O)C5(C(=O)Nc6ccc(F)cc6)CC5)cc4)ccnc3c2)ccc1=O [Compound 119, 1-N′-(4-Fluorophenyl)-1-N-[4-[7-(1-methyl-6-oxopyridin-3-yl)quinolin-4-yl]oxyphenyl]cyclopropane-1,1-dicarboxamide]
- IC50: ≤ 10 nM

Structure (SMILES): O=C(Nc1ccc(F)cc1)C1(C(=O)Nc2ccc(Oc3ccnc4cc(-c5cnn6c5CCC6)ccc34)cc2)CC1 [Compound 29, 1-N-[4-[7-(5,6-Dihydro-4H-pyrrolo[1,2-b]pyrazol-3-yl)quinolin-4-yl]oxyphenyl]-1-N′-(4-fluorophenyl)cyclopropane-1,1-dicarboxamide]
- IC50: 10 to 100 nM

Structure (SMILES): O=C(Nc1ccc(F)cc1)C1(C(=O)Nc2cc(F)c(Oc3ccnc4cc(-c5cnn(C(F)F)c5)ccc34)cc2F)CC1 [Compound 118, 1-N′-[4-[7-[1-(Difluoromethyl)pyrazol-4-yl]quinolin-4-yl]oxy-2,5-difluorophenyl]-1-N-(4-fluorophenyl)cyclopropane-1,1-dicarboxamide]
- IC50: 10 to 100 nM

Structure (SMILES): O=C(Nc1ccc(F)cc1)C1(C(=O)Nc2ccc(Oc3ccnc4cc(-c5ccncn5)ccc34)cc2)CC1 [Compound 114, 1-N′-(4-Fluorophenyl)-1-N-[4-(7-pyrimidin-4-ylquinolin-4-yl)oxyphenyl]cyclopropane-1,1-dicarboxamide]
- IC50: ≤ 10 nM

Now from value to compound:

- IC50: ≤ 10 nM
Structure (SMILES): O=C(Nc1ccc(F)cc1)C1(C(=O)Nc2ccc(Oc3ccnc4cc(-c5cccnc5)ccc34)c(F)c2)CC1 [Compound 113, 1-N-(4-Fluorophenyl)-1-N′-[3-fluoro-4-(7-pyridin-3-ylquinolin-4-yl)oxyphenyl]cyclopropane-1,1-dicarboxamide]

- IC50: 10 to 100 nM
Structure (SMILES): O=C(Nc1ccc(F)cc1)C1(C(=O)Nc2ccc(Oc3ccnc4cc(-c5cnc6[nH]ncc6c5)ccc34)cc2)CC1 [Compound 39, 1-N′-(4-Fluorophenyl)-1-N-[4-[7-(1H-pyrazolo[3,4-b]pyridin-5-yl)quinolin-4-yl]oxyphenyl]cyclopropane-1,1-dicarboxamide]

- IC50: 10 to 100 nM
Structure (SMILES): N#Cc1cncc(-c2ccc3c(Oc4ccc(NC(=O)C5(C(=O)Nc6ccc(F)cc6)CC5)cc4)ccnc3c2)c1 [Compound 40, 1-N-[4-[7-(5-Cyanopyridin-3-yl)quinolin-4-yl]oxyphenyl]-1-N′-(4-fluorophenyl)cyclopropane-1,1-dicarboxamide]

- IC50: 10 to 100 nM
Structure (SMILES): Nc1ccc(-c2ccc3c(Oc4ccc(NC(=O)C5(C(=O)Nc6ccc(F)cc6)CC5)cc4)ccnc3c2)cn1 [Compound 38, 1-N-[4-[7-(6-Aminopyridin-3-yl)quinolin-4-yl]oxyphenyl]-1-N′-(4-fluorophenyl)cyclopropane-1,1-dicarboxamide]

- IC50: 10 to 100 nM
Structure (SMILES): O=C(Nc1ccc(F)cc1)C1(C(=O)Nc2ccc(Oc3ccnc4cc(-c5ccnc(F)c5)ccc34)cc2)CC1 [Compound 33, 1-N′-(4-Fluorophenyl)-1-N-[4-[7-(2-fluoropyridin-4-yl)quinolin-4-yl]oxyphenyl]cyclopropane-1,1-dicarboxamide]

- IC50: 10 to 100 nM
Structure (SMILES): O=C(Nc1ccc(F)cc1)C1(C(=O)Nc2ccc(Oc3ccnc4cc(-c5cccnc5O)ccc34)cc2)CC1 [Compound 52, 1-N′-(4-Fluorophenyl)-1-N-[4-[7-(2-hydroxypyridin-3-yl)quinolin-4-yl]oxyphenyl]cyclopropane-1,1-dicarboxamide]

- IC50: ≤ 10 nM
Structure (SMILES): Cn1ccc(-c2ccc3c(Oc4ccc(NC(=O)C5(C(=O)Nc6ccc(F)cc6)CC5)cc4)ccnc3c2)cc1=O [Compound 117, 1-N′-(4-Fluorophenyl)-1-N-[4-[7-(1-methyl-2-oxopyridin-4-yl)quinolin-4-yl]oxyphenyl]cyclopropane-1,1-dicarboxamide]

- IC50: 10 to 100 nM
Structure (SMILES): O=C(Nc1ccc(F)cc1)C1(C(=O)Nc2ccc(Oc3ccnc4cc(-c5ccc(F)nc5)ccc34)cc2)CC1 [Compound 41, 1-N′-(4-Fluorophenyl)-1-N-[4-[7-(6-fluoropyridin-3-yl)quinolin-4-yl]oxyphenyl]cyclopropane-1,1-dicarboxamide]

- IC50: ≤ 10 nM
Structure (SMILES): O=C(Nc1ccc(F)cc1)C1(C(=O)Nc2ccc(Oc3ccnc4cc(-c5ccc[n+]([O-])c5)ccc34)cc2)CC1 [Compound 109, 1-N′-(4-Fluorophenyl)-1-N-[4-[7-(1-oxidopyridin-1-ium-3-yl)quinolin-4-yl]oxyphenyl]cyclopropane-1,1-dicarboxamide]
